For 71 compounds, TR-FRET signal results are on record in patent US20240246941A1, “SUBSTITUTED 4-(3-AMINOPROP-1-YL)AMINOQUINOLINE ANALOGS AS MODULATORS OF MELANOMA-ASSOCIATED ANTIGEN 11 UBIQUITIN LIGASE” (ST. JUDE CHILDREN'S RESEARCH HOSPITAL, INC., priority 2020, published 2024).

MAGE-A11:PCF11, sequence (P43364 218-429): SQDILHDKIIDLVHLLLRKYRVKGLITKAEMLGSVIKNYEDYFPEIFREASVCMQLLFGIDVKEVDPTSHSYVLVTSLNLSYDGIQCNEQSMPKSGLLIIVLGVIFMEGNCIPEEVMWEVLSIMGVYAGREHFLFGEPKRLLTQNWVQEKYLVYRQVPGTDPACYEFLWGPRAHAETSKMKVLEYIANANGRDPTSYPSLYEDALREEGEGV

In the first experiment the target is MAGE-A11:PCF11 (Homo sapiens (Human), UniProt P43364). Put plainly: TR-FRET single point screening at 15 μM. It counts as binding. On the set-up: unit not given here. Particulars: single point TR-FRET screening at 15 μM against MAGE-A11:PCF11. An outline of the steps:
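Single-point screen at 15 μM (0.25% DMSO) measuring disruption of GST-MAGEA11 (5 nM) binding to FAM-PCF11_4 peptide (200 nM) detected by Tb-anti-GST (5 nM). Buffer 50 mM Tris pH 7.5, 20 mM MgCl2, 0.1 mg/ml BSA, 1 mM DTT; 90 min at ~25 °C; 520/490 nm ratio converted to % inhibition versus controls.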
For orientation: Time-resolved FRET reads energy transfer from a long-lived donor to a nearby acceptor.
Regarding `CCc1ccc2ncc(S(=O)(=O)c3ccccc3)c(N3CCN(CC)CC3)c2c1` [SJ000083957], the TR-FRET signal is on record as 3.238.
On the same count and under the same terms, the value for `CCCCCCNCCCNc1c2ccc(Cl)cc2nc2ccc(OC)cc12` [SJ000361097] was −281.7; that for `COc1ccc(-c2csc(N3CCN(c4cc(C)nc5ccccc45)CC3)n2)cc1OC` [SJ000114009] was −53.43; that for `COc1ccc2nc3cc(Cl)ccc3c(NCCCNCc3cc(C(F)(F)F)ccc3OC)c2c1` [SJ000521002] was −290.2.
As to `CCN1CCN(c2c(S(=O)(=O)c3ccc(C)cc3)cnc3ccc(OC)cc23)CC1` [SJ000083963], the TR-FRET signal is on record as −3.917.
`Cc1cc(NC(=O)CN[C@H]2CCN(Cc3cccc(F)c3)C2)c2ccccc2n1` [SJ000832581]: the TR-FRET signal was −1.278.
With `Cc1cc(C)c(CN(CCCCNc2ccnc3cc(Cl)ccc23)Cc2ccccc2)c(C)c1` [SJ000361193], the TR-FRET signal is on record as 26.03.
In turn, `COc1ccccc1N1CCN(c2c(S(=O)(=O)c3ccc(C)cc3)cnc3ccc(C)cc23)CC1` [SJ000117066] registered a TR-FRET signal of −92.89.
Compound `COc1ccc(O)c(CN(CCCCNc2ccnc3cc(Cl)ccc23)Cc2ccccc2)c1` [SJ000312696] showed a TR-FRET signal of 6.634.
`COc1ccc(F)c(CN(CCCCNc2ccnc3cc(Cl)ccc23)Cc2ccccc2)c1` [SJ000520441] had a TR-FRET signal of 14.55.
`CCOc1ccc(C(=O)c2cnc3ccc(C)cc3c2N2CCN(CC)CC2)cc1` [SJ000247339] displayed a TR-FRET signal of −10.81.
As to `CCN1CCN(c2c(S(=O)(=O)c3ccc(C)cc3)cnc3ccc(C)cc23)CC1` [SJ000083961], the TR-FRET signal was 0.2213.
For `Cc1ccc(S(=O)(=O)c2cnc3ccccc3c2N2CCN(c3ccccc3)CC2)cc1` [SJ000117047], the TR-FRET signal was −6.567.
`CCc1ccc2ncc(S(=O)(=O)c3ccc(OC)cc3)c(N3CCN(c4ccccc4)CC3)c2c1` [SJ000117056] displayed a TR-FRET signal of −2.791.
As for `COc1ccc2nc3cc(Cl)ccc3c(NCCCNCc3ccc4[nH]ccc4c3)c2c1` [SJ000520914], the TR-FRET signal is given as −184.2.
In turn, `Oc1c(F)cc(F)cc1CN(CCCCNc1ccnc2cc(Cl)ccc12)Cc1ccccc1` [SJ000357506] yielded a TR-FRET signal of 30.65.
As to `COc1ccc2ncc(C(=O)c3ccccc3)c(N3CCN(C)CC3)c2c1` [SJ000247245], the TR-FRET signal is −2.393.
Regarding `COc1ccc2ncc(S(=O)(=O)c3ccc(C)c(C)c3)c(N3CCN(c4ccccc4)CC3)c2c1` [SJ000117051], the TR-FRET signal was −52.48.
`Clc1ccc(CN(CCCCNc2ccnc3cc(Cl)ccc23)Cc2ccccc2)c(Cl)c1` [SJ000361207]: the TR-FRET signal amounted to 35.43.
For the compound `CCc1nc2ccccc2c(NC(=O)CN2CCN(c3ccccc3)CC2)c1C` [SJ000111681], the TR-FRET signal was determined as 6.894.
The same measure, in the same setting: then `CN(C)c1ccc(CN(CCCCNc2ccnc3cc(Cl)ccc23)Cc2ccccc2)cc1` [SJ000522727], with 21.52; and `Cc1ccc(S(=O)(=O)c2cnc3ccccc3c2N2CCN(c3ccc(F)cc3)CC2)cc1C` [SJ000117062], with −54.86; and `COc1cccc(F)c1CN(CCCCNc1ccnc2cc(Cl)ccc12)Cc1ccccc1` [SJ000357501], with 5.094.
As for `O=C(CN1CCN(C(=O)c2ccccc2)CC1)Nc1c2c(nc3ccccc13)N(c1cccc(Cl)c1)CC2` [SJ000111683], the TR-FRET signal is −264.3.
Same read-out and setting: the value for `CCCN(CCCNc1c2ccc(Cl)cc2nc2ccc(OC)cc12)Cc1ccc(F)cc1` [SJ000520946] was −141.7; that for `COc1ccc2nc3cc(Cl)ccc3c(NCCCNCc3ccc(Br)o3)c2c1` [SJ000523030] was −219.4.
`COc1ccc2nc3cc(Cl)ccc3c(NCCCNCc3ccccc3C(F)(F)F)c2c1` [SJ000361095]: the TR-FRET signal is −169.5.
In turn, `COc1ccc2nc3cc(Cl)ccc3c(NCCCNCCCSC)c2c1` [SJ000523025] came in with a TR-FRET signal of −336.9.
`Cn1cc(CN(CCCCNc2ccnc3cc(Cl)ccc23)Cc2ccccc2)c2ccccc21` [SJ000520440]: the TR-FRET signal is reported as −14.35.
Turning to `CCCN(CCCNc1c2ccc(Cl)cc2nc2ccc(OC)cc12)Cc1ccc([N+](=O)[O-])s1` [SJ000522735], the TR-FRET signal is listed as −154.4.
For the compound `COc1ccc2nc3cc(Cl)ccc3c(NCCCNCC3CC3)c2c1` [SJ000361087], the TR-FRET signal is listed as −502.4.
On to `COc1ccc2ncc(S(=O)(=O)c3ccc(C)cc3)c(N3CCN(c4ccccc4)CC3)c2c1` [SJ000117048], for which the TR-FRET signal is listed as −85.57.
For `COc1ccc2nc3cc(Cl)ccc3c(NCCCNCC3CCOC3)c2c1` (centres unmarked) [SJ000521003], the TR-FRET signal is listed as −442.3.

Staying with this experiment, now noted: single point TR-FRET screening of quinoline compounds against MAGE-A11:PCF11; 15 μM.
In turn, `CCCCCCN(CCCNc1ccnc2cc(Cl)ccc12)Cc1ccccc1` [SJ000361189] registered a TR-FRET signal of −40.75.
As to `FC(F)(F)c1ccc2c(NCCCNCc3nc4ccccc4s3)ccnc2c1` [SJ000521062], the TR-FRET signal is recorded as 14.43.
Same read-out and setting: the value for `CCCN(CCCNc1ccnc2cc(C(F)(F)F)ccc12)Cc1ccc(C)s1` [SJ000361258] was 19.08; that for `CCCN(CCCNc1ccnc2cc(Cl)ccc12)Cc1cc(C(F)(F)F)ccc1OC` [SJ000523012] was 30.4.
Regarding `CCCN(CCCNc1ccnc2cc(C(F)(F)F)ccc12)Cc1ccc2[nH]ccc2c1` [SJ000575171], the TR-FRET signal is 32.89.
The compound `CCCCN(CCC)CCCNc1ccnc2cc(C(F)(F)F)ccc12` [SJ000520477] yielded a TR-FRET signal of 23.58.
In the case of `CN(C)c1ccc(CN(CCCNc2ccnc3cc(Cl)ccc23)Cc2ccccc2)cc1` [SJ000522741], the TR-FRET signal is reported as 14.76.
For `Clc1ccc2c(NCCCN(Cc3ccccc3)Cc3cccnc3Br)ccnc2c1` [SJ000520462], the TR-FRET signal was 9.715.
Turning to `COc1ccc(O)c(CN(CCCNc2ccnc3cc(Cl)ccc23)Cc2ccccc2)c1` [SJ000357463], the TR-FRET signal is given as 14.17.
Regarding `CCCN(CCCNc1ccnc2cc(C(F)(F)F)ccc12)Cc1ccc(C)o1` [SJ000361261], the TR-FRET signal was found to be 23.91.
Still for that read-out and setting: the value for `FC(F)(F)c1ccc2c(NCCCNCc3nccs3)ccnc2c1` [SJ000521046] was 7.779.
For `Clc1ccc2c(NCCCNCc3ccccn3)ccnc2c1` [SJ000523050], the TR-FRET signal is reported as 4.744.
In turn, `CC(C)(C)CCNCCCNc1ccnc2cc(C(F)(F)F)ccc12` [SJ000521053] displayed a TR-FRET signal of 27.36.
With `Clc1ccc2c(NCCCN(Cc3ccccc3)Cc3cccs3)ccnc2c1` [SJ000312672], the TR-FRET signal worked out at 4.744.
As for `CCCN(CCCNc1ccnc2cc(Cl)ccc12)Cc1ccncc1` [SJ000357449], the TR-FRET signal was found to be 9.295.
Take `Clc1ccc2c(NCCCN(Cc3ccccc3)Cc3ccc4c(c3)OCO4)ccnc2c1` [SJ000522719]: the TR-FRET signal is on record as 9.001.
In turn, `CCCN(CCCNc1c2ccc(Cl)cc2nc2ccc(OC)cc12)Cc1ccc2[nH]ccc2c1` [SJ000522732] had a TR-FRET signal of 39.47.
`FC(F)(F)c1ccc2c(NCCCNCC3CC3)ccnc2c1` [SJ000361108] showed a TR-FRET signal of 22.81.
Compound `CCCN(CCCNc1ccnc2cc(C(F)(F)F)ccc12)Cc1cccc(C(F)(F)F)c1` [SJ000520471] came in with a TR-FRET signal of 13.02.
With `CCCN(CCCNc1ccnc2cc(C(F)(F)F)ccc12)Cc1ccccc1` [SJ000361256], the TR-FRET signal is 28.82.
For the compound `COc1cccc(CN(CCCNc2ccnc3cc(Cl)ccc23)Cc2ccccc2)c1` [SJ000361188], the TR-FRET signal is listed as −9.05.
On the same count and under the same terms, then `CCCN(CCCCCC(=O)OC)CCCNc1c2ccc(Cl)cc2nc2ccc(OC)cc12` [SJ000575151], with −37.41.
`CCCN(CCCNc1ccnc2cc(Cl)ccc12)Cc1cc2ccccc2nc1Cl` [SJ000522760]: the TR-FRET signal stood at 12.8.
The same measure, in the same setting: the value for `CCCN(CCCNc1ccnc2cc(C(F)(F)F)ccc12)Cc1cccs1` [SJ000361253] was 19.53; that for `CCCN(CCCNc1ccnc2cc(C(F)(F)F)ccc12)Cc1ccccn1` [SJ000361252] was 15.16.
With `CCCN(CCCNc1ccnc2cc(C(F)(F)F)ccc12)Cc1ccc(F)c(F)c1` [SJ000361272], the TR-FRET signal worked out at 13.84.
For the compound `CCCN(CCCNc1c2ccc(Cl)cc2nc2ccc(OC)cc12)Cc1nc(C)cs1` [SJ000522966], the TR-FRET signal is on record as −82.15.
`CCCN(CCCNc1ccnc2cc(Cl)ccc12)Cc1cccc2c1OCO2` [SJ000357594]: the TR-FRET signal was determined as 18.14.
As to `CCCN(CCCNc1ccnc2cc(C(F)(F)F)ccc12)Cc1cc(F)ccc1OC` [SJ000520475], the TR-FRET signal is recorded as 15.75.
The compound `CCCN(CCCNc1ccnc2cc(Cl)ccc12)CCCSC` [SJ000357576] had a TR-FRET signal of 7.824.
`CCCN(CCCCCC(=O)OC)CCCNc1ccnc2cc(C(F)(F)F)ccc12` [SJ000575191] had a TR-FRET signal of 5.6.
As to `Cn1ccnc1CN(CCCNc1ccnc2cc(Cl)ccc12)Cc1ccccc1` [SJ000520431], the TR-FRET signal came to 15.36.
`CCCN(CCCNc1ccnc2cc(Cl)ccc12)CC1CCOC1` (centres unmarked) [SJ000523016] gave a TR-FRET signal of 9.664.
Compound `CCCN(CCCNc1ccnc2cc(Cl)ccc12)Cc1cccn1C` [SJ000523014] registered a TR-FRET signal of 22.71.
Same read-out and setting: the value for `CCCN(CCCNc1c2ccc(Cl)cc2nc2ccc(OC)cc12)Cc1cccc(OC(F)(F)F)c1` [SJ000522967] was 14.48; that for `CCOC(=O)c1cnc2c(C)cc(C)cc2c1NCCCN(C)C` [SJ000037397] was 14.93; that for `CCOC(=O)c1cnc2c(C)c(Cl)ccc2c1NCCCN1CCOCC1` [SJ000129912] was −23.26.
The compound `Clc1ccc2c(NCCCN(Cc3ccccc3)Cc3c[nH]c4ccccc34)ccnc2c1` [SJ000520433] gave a TR-FRET signal of 40.19.
